Reference: ChEMBL document CHEMBL1201862, “PubChem BioAssay data set” (2004)
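Test compounds were applied to cells in 96-well plates for 48 hours at 5 doses. GI50: concentration for 50% inhibition of growth.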 Active and inactive are the calls of the source. No stated cut-off is given here; in the data, active = GI50 up to about 1.1 µM and inactive = higher.

What was measured:
Experiment in all cases: NCI-60 cell line screen, 48 h
[1] = system: HOP-92
[2] = system: HCT-15
[3] = system: KM12
[4] = system: CAKI-1
[5] = system: T47D
[6] = system: TK-10
[7] = system: NCI-H226
[8] = system: SK-OV-3
[9] = system: DU-145
[10] = system: HCC 2998
[11] = system: HL-60
[12] = system: EKVX
[13] = system: COLO 205
[14] = system: NCI-H522
[15] = system: SK-MEL-5
[16] = system: RPMI-8226
[17] = system: UACC-257
[18] = system: MDA-MB-435
[19] = system: MOLT-4
[20] = system: K562

| Compound | GI50 [1] | GI50 [2] | GI50 [3] | GI50 [4] | GI50 [5] | GI50 [6] | GI50 [7] | GI50 [8] | GI50 [9] | GI50 [10] | GI50 [11] | GI50 [12] | GI50 [13] | GI50 [14] | GI50 [15] | GI50 [16] | GI50 [17] | GI50 [18] | GI50 [19] | GI50 [20] |
| --- | --- | --- | --- | --- | --- | --- | --- | --- | --- | --- | --- | --- | --- | --- | --- | --- | --- | --- | --- | --- |
| Cc1c(F)c(N)c2c(=O)cc(-c3ccc(NC(=O)C(N)CCCNC(=N)N)c(F)c3)oc2c1F (stereo not drawn) | 49.5 µM (inactive) | 19.7 µM | 27 µM (inactive) | 0.0792 µM (active) | 0.411 µM (active) | 0.146 µM (active) | 0.111 µM (active) | > 44.5 µM (inactive) | 29.6 µM (inactive) | 0.134 µM (active) | > 52 µM (inactive) | 17.2 µM (inactive) | 23.8 µM (inactive) | 24.8 µM (inactive) | 19.7 µM (inactive) | > 33.5 µM (inactive) | 0.262 µM (active) | 27.2 µM (inactive) | 34.6 µM (inactive) |  |
| COC1/C=C\OC2(C)Oc3c(C)c(O)c4c(O)c(c(/C=N\OCCCc5ccccc5)c(O)c4c3C2=O)NC(=O)/C(C)=C\C=C/C(C)C(O)C(C)C(O)C(C)C(OC(C)=O)C1C (stereo not drawn) | 2.15 µM (inactive) | 3.16 µM | 4.47 µM (inactive) | 4.32 µM (inactive) | 4.45 µM (inactive) | 3.23 µM (inactive) | 2.13 µM (inactive) | 4.42 µM (inactive) | 4.71 µM (inactive) | 11.4 µM (inactive) | 3.01 µM (inactive) | 4.52 µM (inactive) | 1.78 µM (inactive) | 3.54 µM (inactive) | 1.78 µM (inactive) |  | 5.74 µM (inactive) | 3.25 µM (inactive) | 3.46 µM (inactive) | 4.16 µM (inactive) |
| COc1ccc2nc(N/N=C/C(C)=N/Nc3cc(C)c4cc(OC)ccc4n3)cc(C)c2c1 | 36.2 µM (inactive) | 9.75 µM | 18.7 µM (inactive) | 49.4 µM (inactive) | 29.8 µM (inactive) | 30.5 µM (inactive) | 45.6 µM (inactive) | > 83.8 µM (inactive) | 18.1 µM (inactive) | 20.1 µM (inactive) | 18.5 µM (inactive) | 19.2 µM (inactive) | 23.2 µM (inactive) | 20.3 µM (inactive) | 26.5 µM (inactive) | 7.33 µM (inactive) | 58.5 µM (inactive) | 29 µM (inactive) | 21.2 µM (inactive) | 3.9 µM (inactive) |
| Cc1nc2ccc([N+](=O)[O-])cc2c(=O)n1C(=S)Nc1cccc(Cl)c1 | 3.5 µM (inactive) | 12.9 µM | 12.9 µM (inactive) | 18.1 µM (inactive) | 7.53 µM (inactive) | 23.8 µM (inactive) | 14.9 µM (inactive) | 22.5 µM (inactive) | 28.4 µM (inactive) | 9.02 µM (inactive) | 14.2 µM (inactive) | 18.7 µM (inactive) | 14 µM (inactive) |  | 14.1 µM (inactive) | 4.06 µM (inactive) | 17.3 µM (inactive) | 17.7 µM (inactive) | 17.9 µM (inactive) | 20.7 µM (inactive) |
| COc1cc(CSc2ccc(O)cc2)cc(O)c1O | 22.7 µM (inactive) | 18.7 µM | 25.9 µM (inactive) | 28 µM (inactive) | 28.8 µM (inactive) | 53.1 µM (inactive) | 23.4 µM (inactive) | > 10 µM (inactive) | 44.5 µM (inactive) | 29.2 µM (inactive) | 19.6 µM (inactive) | 85.7 µM (inactive) | 23.3 µM (inactive) | 16.1 µM (inactive) | > 10 µM (inactive) | 15.7 µM (inactive) | 34 µM (inactive) | 17.2 µM (inactive) | 25.3 µM (inactive) | 31.6 µM (inactive) |
| CCOC(=O)C1C/C(C)=C(/C)SCCCS1 (stereo not drawn) | > 100 µM (inactive) | > 100 µM | > 100 µM (inactive) |  | 60.3 µM (inactive) | > 100 µM (inactive) | > 100 µM (inactive) | > 100 µM (inactive) | > 100 µM (inactive) | > 100 µM (inactive) | 28.6 µM (inactive) | > 100 µM (inactive) | > 100 µM (inactive) | 13.5 µM (inactive) | 45.5 µM (inactive) | 58.6 µM (inactive) | > 100 µM (inactive) | > 100 µM (inactive) | 38.2 µM (inactive) | 46.1 µM (inactive) |
| N#Cc1c(=O)c2ccccc2n2ccccc12 | > 100 µM (inactive) | > 100 µM | > 100 µM (inactive) | > 100 µM (inactive) | > 100 µM (inactive) | > 100 µM (inactive) | 24.9 µM (inactive) |  | > 100 µM (inactive) | > 100 µM (inactive) | > 100 µM (inactive) |  | > 100 µM (inactive) | > 100 µM (inactive) | > 100 µM (inactive) | > 100 µM (inactive) | > 100 µM (inactive) | > 100 µM (inactive) |  | > 100 µM (inactive) |
